Measurements: PubChem BioAssay (NCI)
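How tested: cells in 96-well plates exposed to compound for 48 hours at five concentrations. At the GI50, growth is halved. Definition used: TGI = concentration required for complete inhibition of growth.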

Columns and labels:
Assay in all cases: growth of human tumour cells (NCI), 48 h
HL-60(TB) leukemia = test system: HL-60(TB) leukemia
HOP-92 NSCLC = test system: HOP-92 NSCLC
HS 578T breast = test system: HS 578T breast
SF-268 CNS = test system: SF-268 CNS
SK-OV-3 ovarian = test system: SK-OV-3 ovarian
786-0 renal = test system: 786-0 renal
A498 renal = test system: A498 renal
A549 NSCLC = test system: A549 NSCLC
ACHN renal = test system: ACHN renal
BT-549 breast = test system: BT-549 breast
CAKI-1 renal = test system: CAKI-1 renal
CCRF-CEM leukemia = test system: CCRF-CEM leukemia
COLO 205 colon = test system: COLO 205 colon
DU-145 prostate = test system: DU-145 prostate
EKVX NSCLC = test system: EKVX NSCLC
HCC-2998 colon = test system: HCC-2998 colon
HCT-116 colon = test system: HCT-116 colon
HOP-62 NSCLC = test system: HOP-62 NSCLC
IGROV1 ovarian = test system: IGROV1 ovarian
K-562 leukemia = test system: K-562 leukemia
M14 melanoma = test system: M14 melanoma
MALME-3M melanoma = test system: MALME-3M melanoma
MCF7 breast = test system: MCF7 breast
MDA-MB-231 breast = test system: MDA-MB-231 breast
NCI-H226 lung = test system: NCI-H226 lung
NCI-H23 lung = test system: NCI-H23 lung
NCI-H522 lung = test system: NCI-H522 lung
NCI/ADR-RES ovarian = test system: NCI/ADR-RES ovarian
OVCAR-3 ovarian = test system: OVCAR-3 ovarian
OVCAR-4 ovarian = test system: OVCAR-4 ovarian
OVCAR-5 ovarian = test system: OVCAR-5 ovarian
OVCAR-8 ovarian = test system: OVCAR-8 ovarian
PC-3 prostate = test system: PC-3 prostate
RPMI-8226 leukemia = test system: RPMI-8226 leukemia
RXF 393 renal = test system: RXF 393 renal
SF-295 CNS = test system: SF-295 CNS
SF-539 CNS = test system: SF-539 CNS
SK-MEL-2 melanoma = test system: SK-MEL-2 melanoma
SK-MEL-28 melanoma = test system: SK-MEL-28 melanoma
SN12C renal = test system: SN12C renal
SNB-19 CNS = test system: SNB-19 CNS
SNB-75 CNS = test system: SNB-75 CNS
T-47D breast = test system: T-47D breast
TK-10 renal = test system: TK-10 renal
U251 CNS = test system: U251 CNS
UACC-62 melanoma = test system: UACC-62 melanoma
UO-31 renal = test system: UO-31 renal

## CCCCCCCc1n(Cc2ccc3ccccc3c2)c2ccccc2[n+]1Cc1ccc2ccccc2c1
HL-60(TB) leukemia
  GI50: 186 nM
  TGI: 569 nM
HOP-92 NSCLC
  GI50: 0.163 µM
  TGI: 670 nM
HS 578T breast
  GI50: 1200 nM
  TGI: 3.67 µM
SF-268 CNS
  GI50: 345 nM
  TGI: 1490 nM
SK-OV-3 ovarian
  GI50: 870 nM
  TGI: 2280 nM

## CN1CCN(C(=O)COc2ccc(/C=C3\CC4C5CC=C6CC(Cl)CCC6(C)C5CCC4(C)C3=O)cc2)CC1 (stereo not given)
786-0 renal
  GI50: 88.1 µM
  TGI: > 100 µM
A498 renal
  GI50: > 100 µM
  TGI: > 100 µM
A549 NSCLC
  GI50: > 100 µM
  TGI: > 100 µM
ACHN renal
  GI50: > 100 µM
  TGI: > 100 µM
BT-549 breast
  GI50: 96.1 µM
  TGI: > 100 µM
CAKI-1 renal
  GI50: > 100 µM
  TGI: > 100 µM
CCRF-CEM leukemia
  GI50: 3.94 µM
  TGI: > 100 µM
COLO 205 colon
  GI50: > 100 µM
  TGI: > 100 µM
DU-145 prostate
  GI50: > 100 µM
  TGI: > 100 µM
EKVX NSCLC
  GI50: > 100 µM
  TGI: > 100 µM
HCC-2998 colon
  GI50: > 100 µM
  TGI: > 100 µM
HCT-116 colon
  GI50: 3.08 µM
  TGI: > 100 µM
HOP-62 NSCLC
  GI50: 36.4 µM
  TGI: > 100 µM
HOP-92 NSCLC
  GI50: 10.4 µM
  TGI: > 100000 nM
IGROV1 ovarian
  GI50: > 100 µM
  TGI: > 100 µM
K-562 leukemia
  GI50: 2610 nM
  TGI: > 100 µM
M14 melanoma
  GI50: > 100 µM
  TGI: > 100 µM
MALME-3M melanoma
  GI50: > 100 µM
  TGI: > 100 µM
MCF7 breast
  GI50: > 100 µM
  TGI: > 100 µM
MDA-MB-231 breast
  GI50: > 100 µM
  TGI: > 100 µM
NCI-H226 lung
  GI50: > 100 µM
  TGI: > 100 µM
NCI-H23 lung
  GI50: > 100 µM
  TGI: > 100 µM
NCI-H522 lung
  GI50: > 100 µM
  TGI: > 100 µM
NCI/ADR-RES ovarian
  GI50: > 100 µM
  TGI: > 100 µM
OVCAR-3 ovarian
  GI50: > 100 µM
  TGI: > 100 µM
OVCAR-4 ovarian
  GI50: > 100 µM
  TGI: > 100 µM
OVCAR-5 ovarian
  GI50: > 100 µM
  TGI: > 100 µM
OVCAR-8 ovarian
  GI50: > 100 µM
  TGI: > 100 µM
PC-3 prostate
  GI50: > 100 µM
  TGI: > 100 µM
RPMI-8226 leukemia
  GI50: 6.9 µM
  TGI: > 100 µM
RXF 393 renal
  GI50: 14.3 µM
  TGI: > 100 µM
SF-268 CNS
  GI50: > 100000 nM
  TGI: > 100000 nM
SF-295 CNS
  GI50: > 100 µM
  TGI: > 100 µM
SF-539 CNS
  GI50: > 100 µM
  TGI: > 100 µM
SK-MEL-2 melanoma
  GI50: > 100 µM
  TGI: > 100 µM
SK-MEL-28 melanoma
  GI50: > 100 µM
  TGI: > 100 µM
SK-OV-3 ovarian
  GI50: > 100000 nM
  TGI: > 100000 nM
SN12C renal
  GI50: > 100 µM
  TGI: > 100 µM
SNB-19 CNS
  GI50: > 100 µM
  TGI: > 100 µM
SNB-75 CNS
  GI50: 19 µM
  TGI: 56.7 µM
T-47D breast
  GI50: > 100 µM
  TGI: > 100 µM
TK-10 renal
  GI50: 27.4 µM
  TGI: > 100 µM
U251 CNS
  GI50: 3.33 µM
  TGI: > 100 µM
UACC-62 melanoma
  GI50: > 100 µM
  TGI: > 100 µM
UO-31 renal
  GI50: > 100 µM
  TGI: > 100 µM
